Results: the NIST ThermoML archive (doi:10.1016/j.jct.2011.09.027)

Settings: Liquid; for viscosity: Concentric cylinders viscometry; for mass density: Vibrating tube method

CCOS(=O)(=O)[O-].CCn1cc[n+](C)c1 [1-ethyl-3-methylimidazolium ethyl sulfate]
Settings	mass density [kg/m3]	viscosity [mPa·s]
278.15 K, 101.33 kPa	–	309.1
283.12 K, 19658 kPa	1255.37	–
283.13 K, 29946 kPa	1259.21	–
283.14 K, 98469 kPa	1282.72	–
283.15 K, 101.33 kPa	1247.88	225.2
283.15 K, 40036 kPa	1262.89	–
283.15 K, 49963 kPa	1266.44	–
283.15 K, 59714 kPa	1269.86	–
283.15 K, 69986 kPa	1273.38	–
283.15 K, 79625 kPa	1276.61	–
283.15 K, 89964 kPa	1280	–
283.15 K, 109866 kPa	1286.29	–
283.15 K, 120746 kPa	1289.61	–
283.15 K, 129872 kPa	1292.32	–
283.15 K, 139485 kPa	1295.11	–
283.16 K, 1391 kPa	1248.37	–
283.18 K, 9875 kPa	1251.65	–
283.19 K, 5138 kPa	1249.82	–
293.13 K, 39626 kPa	1256.03	–
293.14 K, 1092 kPa	1241.38	–
293.14 K, 3910 kPa	1242.48	–
293.14 K, 9925 kPa	1244.83	–
293.14 K, 19948 kPa	1248.68	–
293.14 K, 29954 kPa	1252.45	–
293.14 K, 123824 kPa	1284.35	–
293.14 K, 129866 kPa	1286.19	–
293.14 K, 140209 kPa	1289.28	–
293.15 K, 101.33 kPa	1241.01	123.5
293.15 K, 49964 kPa	1259.78	–
293.15 K, 89997 kPa	1273.58	–
293.15 K, 99862 kPa	1276.81	–
293.15 K, 109863 kPa	1280.01	–
293.16 K, 80177 kPa	1270.3	–
293.17 K, 69997 kPa	1266.83	–
293.18 K, 60017 kPa	1263.35	–
298.13 K, 19821 kPa	1245.34	–
298.13 K, 29997 kPa	1249.26	–
298.13 K, 39886 kPa	1252.98	–
298.15 K, 49994 kPa	1256.71	–
298.15 K, 58874 kPa	1259.91	–
298.15 K, 69996 kPa	1263.83	–
298.16 K, 101.33 kPa	1237.53	97.2
298.16 K, 10471 kPa	1241.67	–
298.16 K, 79619 kPa	1267.14	–
298.16 K, 89998 kPa	1270.63	–
298.16 K, 99253 kPa	1273.66	–
298.16 K, 109867 kPa	1277.06	–
298.16 K, 120082 kPa	1280.24	–
298.16 K, 129865 kPa	1283.2	–
298.16 K, 139020 kPa	1285.9	–
298.17 K, 5192 kPa	1239.56	–
298.19 K, 981 kPa	1237.87	–
303.15 K, 101.33 kPa	–	77.1
313.1 K, 944 kPa	1227.8	–
313.14 K, 4705 kPa	1229.35	–
313.14 K, 39636 kPa	1243.24	–
313.14 K, 49994 kPa	1247.16	–
313.14 K, 60122 kPa	1250.92	–
313.15 K, 101.33 kPa	1227.47	50.9
313.15 K, 19818 kPa	1235.48	–
313.15 K, 30003 kPa	1239.51	–
313.15 K, 69996 kPa	1254.49	–
313.15 K, 109873 kPa	1268.13	–
313.15 K, 120354 kPa	1271.49	–
313.15 K, 129874 kPa	1274.47	–
313.16 K, 9378 kPa	1231.27	–
313.16 K, 79657 kPa	1257.92	–
313.16 K, 89993 kPa	1261.49	–
313.16 K, 99450 kPa	1264.69	–
313.16 K, 138377 kPa	1277.07	–
323.15 K, 101.33 kPa	–	35.1
333.12 K, 19852 kPa	1222.8	–
333.12 K, 79184 kPa	1246.16	–
333.13 K, 9972 kPa	1218.57	–
333.13 K, 89997 kPa	1250.05	–
333.13 K, 97104 kPa	1252.54	–
333.15 K, 101.33 kPa	1214.27	25.2
333.15 K, 4956 kPa	1216.39	–
333.15 K, 29992 kPa	1227.03	–
333.15 K, 69997 kPa	1242.77	–
333.15 K, 109862 kPa	1256.89	–
333.15 K, 121234 kPa	1260.63	–
333.16 K, 49995 kPa	1235.1	–
333.16 K, 60002 kPa	1238.99	–
333.16 K, 129872 kPa	1263.39	–
333.17 K, 1680 kPa	1214.95	–
333.17 K, 40144 kPa	1231.18	–
333.18 K, 139672 kPa	1266.43	–
343.15 K, 101.33 kPa	–	18.7
353.13 K, 19599 kPa	1209.45	–
353.13 K, 29993 kPa	1214.03	–
353.13 K, 39918 kPa	1218.29	–
353.13 K, 79974 kPa	1234.36	–
353.13 K, 119073 kPa	1248.32	–
353.14 K, 89917 kPa	1238.07	–
353.14 K, 99462 kPa	1241.53	–
353.14 K, 109824 kPa	1245.17	–
353.14 K, 129849 kPa	1251.87	–
353.14 K, 139892 kPa	1255.06	–
353.15 K, 101.33 kPa	1200.53	14.6
353.15 K, 49925 kPa	1222.47	–
353.15 K, 69993 kPa	1230.52	–
353.18 K, 59605 kPa	1226.41	–
353.19 K, 1193 kPa	1201.04	–
353.19 K, 4987 kPa	1202.81	–
353.19 K, 10093 kPa	1205.15	–
363.15 K, 101.33 kPa	1194.25	11.9
373.11 K, 118179 kPa	1236.88	–
373.12 K, 19814 kPa	1197.22	–
373.13 K, 10765 kPa	1192.98	–
373.13 K, 29997 kPa	1201.88	–
373.13 K, 39971 kPa	1206.31	–
373.13 K, 98959 kPa	1230.06	–
373.13 K, 109856 kPa	1233.98	–
373.13 K, 129856 kPa	1240.8	–
373.14 K, 49993 kPa	1210.64	–
373.15 K, 101.33 kPa	–	9.7
373.15 K, 59698 kPa	1214.72	–
373.15 K, 90001 kPa	1226.72	–
373.15 K, 140000 kPa	1244.08	–
373.16 K, 69987 kPa	1218.92	–
373.17 K, 1377 kPa	1188.48	–
373.17 K, 5226 kPa	1190.34	–
373.17 K, 79962 kPa	1222.87	–
393.12 K, 910 kPa	1175.14	–
393.12 K, 59389 kPa	1202.77	–
393.12 K, 69993 kPa	1207.25	–
393.12 K, 79111 kPa	1210.99	–
393.13 K, 5153 kPa	1177.31	–
393.13 K, 89994 kPa	1215.29	–
393.14 K, 99376 kPa	1218.86	–
393.15 K, 49959 kPa	1198.64	–
393.15 K, 109877 kPa	1222.71	–
393.15 K, 119972 kPa	1226.26	–
393.15 K, 129874 kPa	1229.6	–
393.15 K, 139106 kPa	1232.59	–
393.16 K, 10368 kPa	1179.94	–
393.16 K, 20408 kPa	1184.89	–
393.16 K, 29995 kPa	1189.49	–
393.16 K, 39725 kPa	1194.02	–
413.12 K, 9823 kPa	1167.05	–
413.12 K, 98120 kPa	1207.66	–
413.13 K, 19924 kPa	1172.37	–
413.13 K, 109866 kPa	1212.06	–
413.13 K, 120361 kPa	1215.8	–
413.15 K, 5311 kPa	1164.62	–
413.15 K, 29993 kPa	1177.5	–
413.15 K, 89994 kPa	1204.48	–
413.15 K, 129864 kPa	1219.02	–
413.17 K, 1563 kPa	1162.57	–
413.17 K, 39896 kPa	1182.37	–
413.17 K, 49998 kPa	1187.17	–
413.17 K, 59469 kPa	1191.52	–
413.17 K, 69996 kPa	1196.16	–
413.17 K, 139292 kPa	1222.06	–
413.18 K, 79893 kPa	1200.36	–
